Test results as given in patent publication US20260022118A1, “HETEROCYCLIC COMPOUNDS AS NRAS INHIBITORS” (Board of Regents, The University of Texas System, priority 2023, published 2026).
pIC50: −log10 of the molar value. Like-named read-outs stand apart in the source and are kept apart here.

Tested on: THP-1 cells expressing G12D (NRAS G12D)
Assay: Inhibition of NRAS G12D-mediated phosphorylation of ERK (AlphaLISA p-ERK1/2) in THP-1 cells
Format: cell-based
Conditions: 2 hours incubation, HBSS with 0% or 10% FBS, p-ERK1/2 (Thr202/Tyr204) AlphaLISA, read-out: pERK THP-1 IC50
Description: Inhibition of NRAS G12D-Mediated Phosphorylation of ERK by Exemplary Compounds of Formulas I, II, and III.
This Example illustrates that exemplary compounds and salts thereof described herein inhibit the phosphorylation of ERK downstream of NRAS G12D.
THP-1 cells (ATCC TIB-202) expressing G12D were maintained in RPMI-1640 medium supplemented with 10% fetal bovine serum (FBS), 0.05 mM 2-mercaptoethanol, and penicillin/streptomycin. Cells (20,000/well) were seeded onto a 384 well plate in 20 μL of HBSS supplemented with 0% or 10% FBS. Cells were incubated in the absence or presence of various concentrations of test compound (final 1% DMSO) for 2 hours. p-ERK expression was assessed using the AlphaLISA SureFire Ultra p-ERK1/2 (Thr202/Tyr204) (PerkinElmer®, ALSU-PERK-A10K) following manufacturer recommendation. Plates were read on a PerkinElmer® Envision Multimode plate reader. Dose-response curves were analyzed using IC50 regression curve fitting (GeneData Screener). Curves were plotted as a percent control and normalized by high controls without inhibitor (100%), and low controls (0%) containing 1 μM of trametinib, a potent MEK inhibitor.

pIC50	pIC50 (Homo sapiens, THP-1, 2 h)	Compound
6.94	–	C#Cc1c(F)ccc2cc(O)cc(-c3ncc4c([C@H]5[C@@H]6CN[C@@H](C(=O)OC)[C@@H]65)nn(C)c4c3F)c12 (racemic) [Example 47, methyl rac-(2R,6S)-6-[6-(8-ethynyl-7-fluoro-3-hydroxy-1-naphthyl)-7-fluoro-1-methyl-pyrazolo[4,3-c]pyridin-3-yl]-3-azabicyclo[3.1.0]hexane-2-carboxylate]
5.19	–	C#Cc1c(F)ccc2cc(O)cc(-c3ncc4c([C@H]5[C@@H]6CN[C@@H](C(=O)OC)[C@@H]65)nn(C)c4c3F)c12 (racemic) [Example 48, methyl rac-(2R,6S)-6-[6-(8-ethynyl-7-fluoro-3-hydroxy-1-naphthyl)-7-fluoro-1-methyl-pyrazolo[4,3-c]pyridin-3-yl]-3-azabicyclo[3.1.0]hexane-2-carboxylate]
–	< 5.00	C#Cc1c(F)ccc2cc(O)cc(-c3ncc4c(C5C(=O)C6CCC5CN6)nn(C)c4c3F)c12 (centres unmarked) [Example 41, 5-[6-(8-ethynyl-7-fluoro-3-hydroxy-1-naphthyl)-7-fluoro-1-methyl-pyrazolo[4,3-c]pyridin-3-yl]-2-azabicyclo[2.2.2]octan-6-one]
–	< 5.00	C#Cc1c(F)ccc2cc(O)cc(-c3ncc4c(C5CC6CCC5CN6)nn(C)c4c3F)c12 (centres unmarked) [Example 43, 4-[3-(2-azabicyclo[2.2.2]octan-5-yl)-7-fluoro-1-methyl-pyrazolo[4,3-c]pyridin-6-yl]-5-ethynyl-6-fluoro-naphthalen-2-ol]

More lines, now with the values behind:

Compound	pIC50	pIC50 (Homo sapiens, THP-1, 2 h)
C#Cc1c(F)ccc2cc(O)cc(-c3nc(N(C)C)c4c(N5C[C@H]6CC[C@@H]5CN6)nn(C5CC5)c4c3F)c12 (stereo in doubt) [Example 92, 4-(3-((1R,4R)-2,5-diazabicyclo[2.2.2]octan-2-yl)-1-cyclopropyl-4-(dimethylamino)-7-fluoro-1H-pyrazolo[4,3-c]pyridin-6-yl)-5-ethynyl-6-fluoronaphthalen-2-ol]	–	< 5.00
C#Cc1c(F)ccc2cc(O)cc(-c3ncc4c(N5C[C@@H](C)N[C@@H](C)C5)nn(C)c4c3F)c12 [Example 32, 4-[3-[(3R,5S)-3,5-dimethylpiperazin-1-yl]-7-fluoro-1-methyl-pyrazolo[4,3-c]pyridin-6-yl]-5-ethynyl-6-fluoro-naphthalen-2-ol]	–	< 4.30
C#Cc1c(F)ccc2cc(O)cc(-c3ncc4c(N5C6CNCC5C6)nn(C)c4c3F)c12 [Example 35, 4-[3-(3,6-diazabicyclo[3.1.1]heptan-6-yl)-7-fluoro-1-methyl-pyrazolo[4,3-c]pyridin-6-yl]-5-ethynyl-6-fluoro-naphthalen-2-ol]	–	5.33
C#Cc1c(F)ccc2cc(O)cc(-c3ncc4c(N5C[C@@H]6CNC[C@@H]65)nn(C5CC5)c4c3F)c12 [Example 37, 4-[1-cyclopropyl-3-[(1S,5R)-3,6-diazabicyclo[3.2.0]heptan-6-yl]-7-fluoro-pyrazolo[4,3-c]pyridin-6-yl]-5-ethynyl-6-fluoro-naphthalen-2-ol]	–	5.18
C#Cc1c(F)ccc2cc(O)cc(-c3nc(CCC#N)c4c([C@H]5[C@@H]6CNC[C@@H]65)nn(C5CC5)c4c3F)c12 [Example 50, 3-[3-(3-azabicyclo[3.1.0]hexan-6-yl)-1-cyclopropyl-6-(8-ethynyl-7-fluoro-3-hydroxy-1-naphthyl)-7-fluoro-pyrazolo[4,3-c]pyridin-4-yl]propanenitrile]	–	6.31
C#Cc1c(F)ccc2cc(O)cc(-c3nc(C)c4c([C@H]5[C@@H]6CNC[C@@H]65)nn(C5CC5)c4c3F)c12 [Example 51, 4-[3-(3-azabicyclo[3.1.0]hexan-6-yl)-1-cyclopropyl-7-fluoro-4-methyl-pyrazolo[4,3-c]pyridin-6-yl]-5-ethynyl-6-fluoro-naphthalen-2-ol]	–	6.60
C#Cc1c(F)ccc2cc(O)cc(-c3nc(Cc4ccccc4)c4c([C@H]5[C@@H]6CNC[C@@H]65)nn(C5CC5)c4c3F)c12 [Example 52, 4-[3-(3-azabicyclo[3.1.0]hexan-6-yl)-4-benzyl-1-cyclopropyl-7-fluoro-pyrazolo[4,3-c]pyridin-6-yl]-5-ethynyl-6-fluoro-naphthalen-2-ol]	–	5.41
